This is an account of results in the RepoRT retention time repository.

SMILES strings stand for the structures.

The nature of this data set: Thermo Scientific Acclaim RSLC 120 C18, 100 × 2.1 mm, 2.2 µm, 30 °C, 0.2 to 0.48 mL/min, estimated dead time 1.1 min; A: 90% water + 10% methanol + 5 mM ammonium acetate; B: methanol + 5 mM ammonium acetate; gradient (min/%B) 0.1/1 3/39 14/99.9 16/99.9. The note with it: stereoisomer not certain.
Consider `CC(C)(c1ccc(O)cc1)c1ccc(O)cc1`, for which the LC retention time was 8.49 min. In the case of `C=CCC1(C(C)CCC)C(=O)NC(=O)NC1=O` (stereo not given) it was 8.39 min. The figure for `Cc1ccc(NC(=O)NC(C)(C)c2ccccc2)cc1` is 9.64 min; for `CC(Cc1ccc(O)cc1)NCC(O)c1cc(O)cc(O)c1` (stereo not given) it is 4.33 min; for `NC(=O)c1ncn(C2OC(CO)C(O)C2O)n1` (stereo not given) it is 1.46 min. In the case of `C=C(C)C1Cc2c(ccc3c2OC2COc4cc(OC)c(OC)cc4C2C3=O)O1` (stereo not given) it was 10.4 min. On to `CC(C)C1(C)N=C(c2ncccc2C(=O)O)NC1=O` (stereo not given), for which the LC retention time is 3.1 min. The figure for `Cc1cccc(C)c1NC(=O)C1CCCCN1C` (stereo not given) is 7.49 min. In the case of `CC1(C)OCC2OC3(C(=O)O)OC(C)(C)OC3C2O1` (stereo not given) it was 4.3 min; in that of `CCNC1CN(CCCOC)S(=O)(=O)c2sc(S(N)(=O)=O)cc21` (stereo not given), 5.74 min. In the case of `CC(C)c1nc(CN(C)C(=O)NC(C(=O)NC(Cc2ccccc2)CC(O)C(Cc2ccccc2)NC(=O)OCc2cncs2)C(C)C)cs1` (stereo not given) it was 12.5 min; in that of `CC(=O)NCCCS(=O)(=O)O`, 1.46 min; in that of `Cc1ccc(C(C)NC(=O)C(NC(=O)OC(C)C)C(C)C)cc1` (stereo not given), 9.8 min. Take `CC(=O)Nc1ccc(S(=O)(=O)Nc2nc(C)cc(C)n2)cc1`: the LC retention time is 5.06 min. The figure for `CC(C)N1C(=O)c2ccccc2NS1(=O)=O` is 4.49 min; for `CC(=O)Nc1ccc(S(=O)(=O)Nc2nccs2)cc1` it is 4.61 min. In the case of `CNC(=C[N+](=O)[O-])NCCS(=O)Cc1ccc(CN(C)C)o1` (stereo not given) it was 3.93 min; in that of `CCOC1OC(C(=O)O)C(O)C(O)C1O` (stereo not given), 1.35 min; in that of `CC(C)C(N)C(=O)OCC(CO)OCn1cnc2c(=O)[nH]c(N)nc21` (stereo not given), 4.08 min. In the case of `C=C(C)C1CCC(C)=CC1c1c(O)cc(CCCCC)cc1O` (stereo not given) it was 13.7 min; in that of `Nc1ncnc2c1ncn2C1OC(CO)C(O)C1O` (stereo not given), 3.84 min.

With `COC(=O)C(Cc1ccccc1)NC(=O)C(CC(=O)O)NCCC(C)(C)C` (stereo not given), the LC retention time is 10.2 min. The figure for `CCCCc1oc2ccc(NS(C)(=O)=O)cc2c1C(=O)c1ccc(OCCCN(CCCC)CCCC)cc1` is 13.3 min; for `CCNC(=O)C(C)OC(=O)Nc1ccccc1` (stereo not given) it is 6.54 min; for `CC(=O)CC(c1ccccc1)c1c(O)c2ccccc2oc1=O` (stereo not given) it is 6.56 min. The figure for `CC(C)CN(CC(O)C(Cc1ccccc1)NC(=O)OC1COC2OCCC12)S(=O)(=O)c1ccc(N)cc1` (stereo not given) is 9.37 min; for `Cc1cc(C)cc(C(=O)N(NC(=O)c2ccc3c(c2C)CCCO3)C(C)(C)C)c1` it is 9.91 min; for `CCN(CC)C(=O)Nc1ccc(OCC(O)CNC(C)(C)C)c(C(C)=O)c1` (stereo not given) it is 6.76 min. In the case of `COC(=O)Nc1cccc(OC(=O)Nc2cccc(C)c2)c1` it was 8.72 min; in that of `CC1CC(C)C(=O)C(C(O)CC2CC(=O)NC(=O)C2)C1` (stereo not given), 6.32 min. Take `CCOP(=S)(NC(C)C)Oc1ccccc1C(=O)OC(C)C` (stereo not given): the LC retention time is 11.2 min. On to `CC12C=CC(=O)C=C1CCC1C2C(=O)CC2(C)C1CCC2(O)C(=O)CO` (stereo not given), for which the LC retention time was 8.31 min. Consider `CCC1(CCC(C)C)C(=O)NC(=O)NC1=O`, for which the LC retention time is 7.9 min. As to `CCC(C)C1(CC)C(=O)NC(=O)NC1=O` (stereo not given), the LC retention time was 6.83 min. In the case of `COc1cc(S(=O)(=O)O)c(C)cc1N=Nc1c(O)ccc2cc(S(=O)(=O)O)ccc12` it was 2.88 min; in that of `CCCCCCCCCC(Oc1ccccc1)C(=O)O` (stereo not given), 11.4 min.

As to `CCc1cccc(CC)c1N(COC)C(=O)CS(=O)(=O)O`, the LC retention time is 8.02 min. Regarding `CC1=C(C(=O)Nc2ccccc2)S(=O)(=O)CCO1`, the LC retention time is 5.57 min. For `CCNc1nc(NC(C)C)[nH]c(=O)n1`, the LC retention time was 6 min. In the case of `O=C(O)c1ccccc1` it was 2.88 min.

Regarding `O=[N+]([O-])c1cc(C2CCCCC2)c(O)c([N+](=O)[O-])c1`, the LC retention time was 9.19 min. In the case of `CC1=CC(=O)CC2CCC3C4CCC(O)C4(C)CCC3C12C` (stereo not given) it was 13.8 min. The figure for `CC12C=CC(=O)C=C1CCC1C2C(O)CC2(C)C1CCC2(O)C(=O)CO` (stereo not given) is 8.92 min; for `CCCC(C)C1(CC)C(=O)NC(=S)NC1=O` (stereo not given) it is 8.63 min. The figure for `CCOP(=S)(OCC)SCS(=O)(=O)C(C)(C)C` is 8.98 min.

Consider `NS(=O)(=O)c1cc(C(=O)O)cc(N2CCCC2)c1Oc1ccccc1`, for which the LC retention time is 6.04 min. In the case of `CCC1OC(=O)C(C)C(OC2CC(C)(OC)C(O)C(C)O2)C(C)C(OC2OC(C)CC(NC)C2O)C(C)(OC)CC(C)C(=O)C(C)C(O)C1(C)O` (stereo not given) it was 11.3 min. In the case of `CNCC(O)c1cccc(O)c1` (stereo not given) it was 3.24 min; in that of `COc1cc(OC)nc(NC(=O)NS(=O)(=O)c2cc(NC=O)ccc2C(=O)N(C)C)n1`, 5.62 min; in that of `CC12CCC3c4ccc(O)cc4CCC3C1CC(O)C2=O` (stereo not given), 8.42 min.

On to `O=C1CC(C(=O)O)CC(=O)C1=C(O)C1CC1` (stereo not given), for which the LC retention time is 1.49 min. As to `CCNc1nc(NC(C)(C)C)[nH]c(=O)n1`, the LC retention time was 8.46 min.

As to `CC(C)(C)CC(C)(C)c1ccc(O)cc1`, the LC retention time is 12.3 min. Take `COc1ccc(C(O)(c2cncnc2)C2CC2)cc1` (stereo not given): the LC retention time is 7.12 min. For `Nc1ccc(O)c(C(=O)O)c1`, the LC retention time was 2.04 min.
